From ChEMBL document CHEMBL1151346, “Alkaloids of Thalictrum XXXIV. Three New Alkaloids, Thalmirabine, Thalistine, and O-Methylthalibrine, and Others From Roots of Thalictrum minus Race B” (1980)
In brackets after ≈: the same amount, converted by molar mass.

Assays:
Type in all cases: functional
[1] = tested on: Mycolicibacterium smegmatis; assay: Antimicrobial activity against Mycobacterium smegmatis
Staphylococcus aureus = assay: Antimicrobial activity against Staphylococcus aureus
Candida albicans = assay: Antimicrobial activity against Candida albicans

Structure (SMILES)	MIC [1] [µg/mL]	MIC (Staphylococcus aureus) [µg/mL]	MIC (Candida albicans) [µg/mL]
COc1ccc(C[C@H]2c3cc(OC)c(OC)c(O)c3CCN2C)cc1Oc1ccc(C[C@H]2c3cc4c(c(OC)c3CCN2C)OCO4)cc1 [THALISTINE]	100 (≈ 150 µM)	1000 (≈ 1500 µM)	
COc1cc2c(cc1OC)[C@H](Cc1ccc(Oc3cc(C[C@H]4c5cc(OC)c(OC)cc5CCN4C)ccc3OC)cc1)N(C)CC2	100 (≈ 157 µM)		500 (≈ 783 µM)
COc1ccc2cc1Oc1ccc(cc1)C[C@H]1c3c(c(O)c(OC)c(OC)c3Oc3c4c(cc(OC)c3OC)[C@H](C2)N(C)CC4)CCN1C [THALIMIRABINE]	100 (≈ 150 µM)		
